Molecules are shown by their SMILES.

Broadly, the IC50 is the concentration needed to halve the response being measured.

The assay has as its target Proto-oncogene tyrosine-protein kinase Src (Homo sapiens, UniProt P12931). The assay can be described thus: Expression and Purification of Active Kinases.

Chain of Proto-oncogene tyrosine-protein kinase Src (P12931 2-536 limits assumed): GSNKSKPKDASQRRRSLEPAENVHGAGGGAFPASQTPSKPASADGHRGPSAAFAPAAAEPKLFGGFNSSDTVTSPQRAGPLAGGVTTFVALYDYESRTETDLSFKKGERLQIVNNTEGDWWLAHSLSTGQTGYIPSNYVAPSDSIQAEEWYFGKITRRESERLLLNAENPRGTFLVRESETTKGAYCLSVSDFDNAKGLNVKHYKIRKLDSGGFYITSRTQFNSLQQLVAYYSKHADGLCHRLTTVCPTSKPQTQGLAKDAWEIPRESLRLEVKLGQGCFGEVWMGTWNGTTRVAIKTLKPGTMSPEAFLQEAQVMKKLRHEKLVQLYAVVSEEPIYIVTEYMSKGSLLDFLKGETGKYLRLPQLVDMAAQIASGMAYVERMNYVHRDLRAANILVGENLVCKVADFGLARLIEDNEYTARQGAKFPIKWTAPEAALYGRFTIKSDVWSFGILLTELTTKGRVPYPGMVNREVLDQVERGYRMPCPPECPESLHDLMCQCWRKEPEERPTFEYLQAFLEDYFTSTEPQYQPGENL

`CC(C)(C)n1nc(Cc2coc3ccccc23)c2c(N)ncnc21` [US11208411, Cmpd LJQ-145]: it took 1570 nM to reach half-maximal inhibition (IC50).

The values are drawn from BindingDB's records for patent US11208411 (The Regents of the University of California; Washington …, 2021).
